Patent US20250009779A1 (priority 2021, published 2025)
Entries after “also recorded” stand apart in the source; their conditions may differ.

Key:
pDCs [1] = format: cell-based, human
pDCs [2] = format: cell-based, human; remark: listed apart in the source
pDCs [3] = format: cell-based, human; remark: listed apart in the source
pDCs [4] = format: cell-based, human; remark: listed apart in the source
pDCs [5] = system: pDCs
macrophages [6] = test: FAIRE assay on promoter regions of IL6, TNF and IL12p40 in macrophages; format: cell-based, human; details: cells primed with IFN-α 24 hours, then LPS 3 hours, FIG. 4G
macrophages [7] = test: Immunoblot of NF-κB and MAPKs signaling in macrophages; format: cell-based, human; details: whole cell lysates, FIG. 20B
macrophages [8] = format: cell-based, human

Molecule: C/C=C(/C)C(=O)O[C@H]1C(C)=C2[C@H]([C@@H]1OC(=O)CCCCCCC)[C@@](C)(OC(C)=O)C[C@H](OC(=O)CCC)[C@@]1(O)[C@H]2OC(=O)[C@@]1(C)O [thapsigargin]
- gene encoding phosphoglycerate dehydrogenase (PHGDH) expression (pDCs [1]): markedly induced
- induction of serine amino acid biosynthesis genes (pDCs [1]): induction

Molecule: O.O=C([O-])CCC(=O)C(=O)[O-].[Na+].[Na+] [α-KG, α-ketoglutaric acid disodium salt hydrate]
- intracellular ATP levels under ER stress (pDCs [2]): restored

Molecule: N[C@@H](CO)C(=O)O [L-serine]
- IFN-α secretion by TLR9-activated pDCs (pDCs [3]): unaltered

Molecule: Cc1ccc(OCCN(C)C(=O)Cn2cc(NC(=O)CCOc3ccccc3)cn2)cc1 [IXA4]
- PHGDH gene expression (pDCs [1]): induced

Molecule: Cc1cc(C)nc(NC(=S)N2CCN(Cc3ccc(C(F)(F)F)cc3)CC2)c1 [NCT-503]
- intracellular ATP levels under ER stress (pDCs [2]): restored
- IFNA expression by TLR9-activated pDCs facing ER stress (pDCs [1]): restored
- intracellular pyruvate levels in ER stressed-pDCs (pDCs [4]): restored

Molecule: O=C(O)CCCCC(CCSCc1ccccc1)SCc1ccccc1 (centres unmarked) [CPI-613, 6,8-bis-benzylthio-octanoic acid]
- intracellular ATP levels in TLR9-activated pDCs (pDCs [2]): reduced
- cell viability (pDCs [5]): no effect
- XBP1 splicing (pDCs [1]): no effect
- expression of ISGs such as GBP1, IRF7, ISG54, MxB, CXCL10 (pDCs [1]): inhibited
- expression of PHGDH (pDCs [1]): no effect
- expression of IFN-α (IFNA) (pDCs [1]; 5 h): inhibited
- secretion of IFN-α (pDCs [3]): inhibited

Molecule: CC(=O)C(=O)[O-].[Na+] [pyruvate, sodium pyruvate]
- intracellular ATP levels under ER stress (pDCs [2]): restored
- IFNA expression by pDCs under ER stress condition (pDCs [1]): restore

Molecule: IFN-α
- chromatin accessibility of IL6 and TNF promoters (macrophages [6]): significantly increased; also recorded: increase
- TLR4-induced IKBα degradation or activation of MAPKs ERK and p38 (macrophages [7]): minimal effects; also recorded: does not increase
- LPS-induced response in macrophages: TNF, IL6, IL1B, IL12B and IFNB (macrophages [8]): superinduction; also recorded: increases
- TLR4 expression or of the 2 subunits of the IFNAR in the macrophages (macrophages [8]): little change
- chemokine receptors expression on macrophages (macrophages [8]): significant impact
- inflammatory genes (IL-1β, IL-12p40, IFN-β and CXCL10) expression (macrophages [8]): dose-dependent manner
